Experimental data taken from the supplement of paper PMC8671470.

What was measured:
Details in all cases: 72 h
MOLM-13 [1] = system: MOLM-13
Outline: (§1)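 Fifteen myeloid leukaemia lines in RPMI 1640 were treated for 72 h at 37 °C and 5% CO2 with five tenfold doses from 1 to 10,000 nM, in duplicate. ATP luminescence was normalised to vehicle and to a positive control at 10 µM, then fitted with a four-parameter log-logistic model. The IC50 came from these fits.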

ML-2 [2] = system: ML-2
Outline: as §1

SHI-1 [3] = system: SHI-1
Outline: as §1

KCL-22 [4] = system: KCL-22
Outline: as §1

KG-1 [5] = system: KG-1
Outline: as §1

BV-173 [6] = system: BV-173
Outline: as §1

Mono-Mac-6 [7] = system: Mono-Mac-6
Outline: as §1

LAMA-84 [8] = system: LAMA-84
Outline: as §1

HEL [9] = system: HEL
Outline: as §1

THP-1 [10] = system: THP-1
Outline: as §1

MV4-11 [11] = system: MV4-11
Outline: as §1

HL-60 [12] = system: HL-60
Outline: as §1

KU-812 [13] = system: KU-812
Outline: as §1

NOMO-1 [14] = system: NOMO-1
Outline: as §1

K-562 [15] = system: K-562
Outline: as §1

MOLM-13 [16] = test: cell viability (% survival relative to DMSO control, bortezomib = 0%); higher = less cytotoxic
Outline: (§2)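 Fifteen myeloid leukaemia cell lines (10 AML, 5 CML) were seeded at a density titrated to the linear growth range. They went into 384-well plates with compounds pre-printed at 1, 10, 100, 1000 or 10000 nM in duplicate. After 72 h at 37 °C with 5% CO2, viability was read by CellTiter-Glo luminescence. Values are percent survival, with vehicle set to 100% and a 10 µM positive control to 0%, averaged over the duplicates.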

ML-2 [17] = test: as above
Outline: as §2

SHI-1 [18] = test: as above
Outline: as §2

KCL-22 [19] = test: as above
Outline: as §2

KG-1 [20] = test: as above
Outline: as §2

BV-173 [21] = test: as above
Outline: as §2

Mono-Mac-6 [22] = test: as above
Outline: as §2

LAMA-84 [23] = test: as above
Outline: as §2

HEL [24] = test: as above
Outline: as §2

THP-1 [25] = test: as above
Outline: as §2

MV4-11 [26] = test: as above
Outline: as §2

HL-60 [27] = test: as above
Outline: as §2

KU-812 [28] = test: as above
Outline: as §2

NOMO-1 [29] = test: as above
Outline: as §2

K-562 [30] = test: as above
Outline: as §2

OC[C@H]1O[C@@H](n2cnc3c2N=CNC[C@H]3O)C[C@@H]1O [Pentostatin]
Details	IC50 (cell viability) [µM]
BV-173 [6]	> 10
HEL [9]	> 10
HL-60 [12]	> 10
K-562 [15]	> 10
KCL-22 [4]	> 10
KG-1 [5]	> 10
KU-812 [13]	> 10
LAMA-84 [8]	> 10
ML-2 [2]	> 10
MOLM-13 [1]	> 10
MV4-11 [11]	> 10
Mono-Mac-6 [7]	> 10
NOMO-1 [14]	> 10
SHI-1 [3]	> 10
THP-1 [10]	> 10

cell viability [%]
Details	1 nM	10 nM	100 nM	1000 nM	10000 nM
BV-173 [21]	102	97.4	117	94.5	101
HEL [24]	105	89.4	102	103	142
HL-60 [27]	99.5	99.7	98.2	100	118
K-562 [30]	95.3	106	111	99.2	107
KCL-22 [19]	99.1	89.9	101	94.3	105
KG-1 [20]	101	104	97.9	108	97.8
KU-812 [28]	96.4	99.5	112	95.1	115
LAMA-84 [23]	102	99.6	111	101	108
ML-2 [17]	99.2	86.6	99.1	108	123
MOLM-13 [16]	86.9	99.7	101	110	114
MV4-11 [26]	95.8	104	107	105	103
Mono-Mac-6 [22]	104	94.2	105	91.9	99.3
NOMO-1 [29]	105	94.3	113	98.8	106
SHI-1 [18]	93.9	100	94.5	100	111
THP-1 [25]	102	93.5	111	98.3	103

CC(C)CC(=O)N[C@H](C(=O)N[C@H](C(=O)N[C@@H](CC(C)C)[C@@H](O)CC(=O)N[C@@H](C)C(=O)N[C@@H](CC(C)C)[C@@H](O)CC(=O)O)C(C)C)C(C)C [Pepstatin A]
Details	IC50 (cell viability) [µM]
BV-173 [6]	> 10
HEL [9]	> 10
HL-60 [12]	> 10
K-562 [15]	> 10
KCL-22 [4]	> 10
KG-1 [5]	> 10
KU-812 [13]	> 10
LAMA-84 [8]	> 10
ML-2 [2]	> 10
MOLM-13 [1]	> 10
MV4-11 [11]	> 10
Mono-Mac-6 [7]	> 10
NOMO-1 [14]	> 10
SHI-1 [3]	> 10
THP-1 [10]	> 10

cell viability [%]
Details	1 nM	10 nM	100 nM	1000 nM	10000 nM
BV-173 [21]	94.2	86.5	106	101	88.4
HEL [24]	98.8	88.3	95.8	105	95.3
HL-60 [27]	99.7	73.7	111	144	84.6
K-562 [30]	95.1	85.5	96.9	101	87.9
KCL-22 [19]	97.4	74.5	101	101	98.7
KG-1 [20]	99.1	77.5	96.8	90.7	93.9
KU-812 [28]	102	101	96.8	111	95.9
LAMA-84 [23]	92.2	87.2	103	96.2	103
ML-2 [17]	96.5	84.5	105	106	91.8
MOLM-13 [16]	109	93.8	109	126	86.5
MV4-11 [26]	87.7	77.9	90	92.3	81.8
Mono-Mac-6 [22]	101	83.7	104	100	101
NOMO-1 [29]	98.3	86.8	106	104	102
SHI-1 [18]	93	87.5	111	105	105
THP-1 [25]	96.3	87.1	103	96.1	97

Cc1cccc(Nc2cc(Cl)nc(SCC(=O)O)n2)c1C [Pirinixic acid]
Details	IC50 (cell viability) [µM]
BV-173 [6]	> 10
HEL [9]	> 10
HL-60 [12]	> 10
K-562 [15]	> 10
KCL-22 [4]	> 10
KG-1 [5]	> 10
KU-812 [13]	> 10
LAMA-84 [8]	> 10
ML-2 [2]	> 10
MOLM-13 [1]	> 10
MV4-11 [11]	> 10
Mono-Mac-6 [7]	> 10
NOMO-1 [14]	> 10
SHI-1 [3]	> 10
THP-1 [10]	> 10

cell viability [%]
Details	1 nM	10 nM	100 nM	1000 nM	10000 nM
BV-173 [21]	106	90.6	104	92.1	93.5
HEL [24]	84	100	109	104	101
HL-60 [27]	97.2	101	116	93.8	98.2
K-562 [30]	99.8	92.3	102	94.5	90.7
KCL-22 [19]	86.5	92.5	100	106	101
KG-1 [20]	99	93.1	101	98.8	107
KU-812 [28]	97.2	97.6	102	96.4	97.3
LAMA-84 [23]	100	97.7	99	94.5	95
ML-2 [17]	103	103	105	105	102
MOLM-13 [16]	106	102	87.1	111	84.6
MV4-11 [26]	94.5	90.7	102	99.3	99.8
Mono-Mac-6 [22]	105	106	98.4	99.2	91.4
NOMO-1 [29]	106	102	102	90.5	96.8
SHI-1 [18]	98.5	97	91.8	94.4	82.8
THP-1 [25]	105	97.1	101	99.5	102
